# Patent US6914045B2, “Glycopeptide antibiotics” (Wyeth Holdings Corporation, priority 2001, dated 2005)
# Assays:
# Assay in all cases: in vitro antibacterial evaluation, MIC by broth dilution
# Type in all cases: cell-based
# [1] = system: Enterococcus sp.; conditions: broth dilution, 18 hours at 35° C.
# Procedure, shortened: (§1)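 Test organisms, which included recent clinical isolates resistant to methicillin, penicillin and/or vancomycin, were inoculated at 5×10^5 CFU/mL into Muller-Hinton II […] containing antibiotic at 64-0.06 μg/mL. Minimum inhibitory concentrations were then read as the lowest level inhibiting growth.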
# [2] = system: Staphylococcus sp.; conditions: broth dilution, 18 hours at 35° C.; for MIC Staphylococcus aureus (ATCC 29213): strain ATCC 29213; for MIC Staphylococcus aureus (GC 1131): strain GC 1131; for MIC Staphylococcus aureus (GC 3051): strain GC 3051; for MIC Staphylococcus aureus (GC 3053): strain GC 3053; for MIC Staphylococcus aureus (GC 4541): strain GC 4541; for MIC Staphylococcus aureus (GC 4542): strain GC 4542; for MIC Staphylococcus aureus (GC 4544): strain GC 4544; for MIC Staphylococcus aureus (GC 4545): strain GC 4545
# Procedure, shortened: as §1
# [3] = system: Streptococcus sp.; conditions: broth dilution, 18 hours at 35° C.
# Procedure, shortened: as §1
# [4] = system: Escherichia coli; conditions: 18 hours at 35° C.
# Procedure, shortened: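 MIC is the lowest antibiotic concentration (tested 64-0.06 μg/mL) preventing growth of a 5×10^5 CFU/mL inoculum. Determined by broth dilution in Mueller-Hinton II medium following NCCLS standard M7-A2.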
# [5] = Enterococcus faecalis (ATCC 29212)
# [6] = Enterococcus faecalis (GC 4552)
# [7] = Enterococcus faecalis (GC 4553)
# [8] = Enterococcus faecalis (GC 4554)
# [9] = Enterococcus faecalis (GC 6189)
compound,measurement,setting,value
CCCCCCCN1CC(C(O)C2NC(=O)C(C(O)C3CNC(=N)N3)NC(=O)C(Cc3ccc(OC4OC(CO)C(OC5OC6COC7(OC6C(O)C5O)C5CC6CC(C5)CC7C6)C(O)C4O)cc3)NC(=O)C(C(C)c3ccccc3)NC(=O)CNC(=O)C(CO)NC2=O)N(C2OC(CO)C(O)C(O)C2O)C1=N (centres unmarked) [Example 83],MIC Enterococcus avium (GC 4558),[1]; Enterococcus avium (GC 4558),2 µg/mL
same,MIC Enterococcus faecalis (ATCC 29212),[1]; [5],4 µg/mL
same,MIC Enterococcus faecalis (GC 4552),[1]; [6],4 µg/mL
same,MIC Enterococcus faecalis (GC 4553),[1]; [7],2 µg/mL
same,MIC Enterococcus faecalis (GC 4554),[1]; [8],4 µg/mL
same,MIC Enterococcus faecalis (GC 6189),[1]; [9],4 µg/mL
same,MIC Enterococcus faecium (GC 2243),[1]; Enterococcus faecium (GC 2243),2 µg/mL
same,MIC Enterococcus faecium (GC 4556),[1]; Enterococcus faecium (GC 4556),4 µg/mL
same,MIC Enterococcus faecium (GC 4557),[1]; Enterococcus faecium (GC 4557),1 µg/mL
same,MIC Enterococcus avium (GC 4558),[1],2 µg/mL
same,MIC Enterococcus faecalis (ATCC 29212),[1],4 µg/mL
same,MIC Enterococcus faecalis (GC 2242),[1],4 µg/mL
same,MIC Enterococcus faecalis (GC 2691),[1],4 µg/mL
same,MIC Enterococcus faecalis (GC 3059),[1],4 µg/mL
same,MIC Enterococcus faecalis (GC 4552),[1],4 µg/mL
same,MIC Enterococcus faecalis (GC 4553),[1],2 µg/mL
same,MIC Enterococcus faecalis (GC 4554),[1],4 µg/mL
same,MIC Enterococcus faecalis (GC 6189),[1],4 µg/mL
same,MIC Enterococcus faecium (GC 2243),[1],2 µg/mL
same,MIC Enterococcus faecium (GC 4556),[1],4 µg/mL
same,MIC Enterococcus faecium (GC 4557),[1],1 µg/mL
same,MIC Enterococcus faecalis (GC 2242),[1]; strain GC 2242,4 µg/mL
same,MIC Enterococcus faecalis (GC 2691),[1]; strain GC 2691,4 µg/mL
same,MIC Enterococcus faecalis (GC 3059),[1]; strain GC 3059,4 µg/mL
same,MIC Coagulase Negative Staphylococcus (GC 4547),[2],2 µg/mL
same,MIC Coagulase Negative Staphylococcus (GC 4548),[2],1 µg/mL
same,MIC Coagulase Negative Staphylococcus (GC 4549),[2],2 µg/mL
same,MIC Coagulase Negative Staphylococcus (GC 4551),[2],2 µg/mL
same,MIC Staphylococcus aureus-SMITH (GC 4543),[2],2 µg/mL
same,MIC Staphylococcus haemolyticus (GC 4546),[2],2 µg/mL
same,MIC Staphylococcus aureus (ATCC 29213),[2],2 µg/mL
same,MIC Staphylococcus aureus (GC 1131),[2],4 µg/mL
same,MIC Staphylococcus aureus (GC 3051),[2],4 µg/mL
same,MIC Staphylococcus aureus (GC 3053),[2],4 µg/mL
same,MIC Staphylococcus aureus (GC 4541),[2],2 µg/mL
same,MIC Staphylococcus aureus (GC 4542),[2],4 µg/mL
same,MIC Staphylococcus aureus-SMITH (GC 4543),[2]; strain GC 4543,2 µg/mL
same,MIC Staphylococcus aureus (GC 4544),[2],4 µg/mL
same,MIC Staphylococcus aureus (GC 4545),[2],2 µg/mL
same,MIC Staphylococcus haemolyticus (GC 4546),[2]; strain GC 4546,2 µg/mL
same,MIC Coagulase Negative Staphylococcus (GC 4547),[2]; strain GC 4547,2 µg/mL
same,MIC Coagulase Negative Staphylococcus (GC 4548),[2]; strain GC 4548,1 µg/mL
same,MIC Coagulase Negative Staphylococcus (GC 4549),[2]; strain GC 4549,2 µg/mL
same,MIC Coagulase Negative Staphylococcus (GC 4551),[2]; strain GC 4551,2 µg/mL
same,MIC Streptococcus agalactiae (GC 4564),[3],0.25 µg/mL
same,MIC Streptococcus pneumoniae (ATCC 6301),[3],0.5 µg/mL
same,MIC Streptococcus pneumoniae (GC 1894),[3],<0.12 µg/mL
same,MIC Streptococcus pneumoniae (GC 4565),[3],0.25 µg/mL
same,MIC Streptococcus pyogenes (GC 4563),[3],0.25 µg/mL
same,MIC Streptococcus pneumoniae (ATCC 6301),[3]; strain ATCC 6301,0.5 µg/mL
same,MIC Streptococcus pneumoniae (GC 1894),[3]; strain GC 1894,<0.12 µg/mL
same,MIC Streptococcus pyogenes (GC 4563),[3]; strain GC 4563,0.25 µg/mL
same,MIC Streptococcus agalactiae (GC 4564),[3]; strain GC 4564,0.25 µg/mL
same,MIC Streptococcus pneumoniae (GC 4565),[3]; strain GC 4565,0.25 µg/mL
same,MIC Escherichia coli (ATCC 25922),[4],64 µg/mL
same,MIC Escherichia coli (GC 4559),[4],32 µg/mL
same,MIC Escherichia coli (GC 4560),[4],2 µg/mL
CCCCCCN=C1NCC(C(O)C2NC(=O)C(C(O)C3CNC(=N)N3)NC(=O)C(Cc3ccc(OC4OC(CO)C(OC5OC6COC7(OC6C(O)C5O)C5CC6CC(C5)CC7C6)C(O)C4O)cc3)NC(=O)C(C(C)c3ccccc3)NC(=O)CNC(=O)C(CO)NC2=O)N1C1OC(CO)C(O)C(O)C1O (centres unmarked) [Example 84],MIC Enterococcus avium (GC 4558),[1]; Enterococcus avium (GC 4558),8 µg/mL
same,MIC Enterococcus faecalis (ATCC 29212),[1]; [5],8 µg/mL
same,MIC Enterococcus faecalis (GC 4552),[1]; [6],8 µg/mL
same,MIC Enterococcus faecalis (GC 4553),[1]; [7],8 µg/mL
same,MIC Enterococcus faecalis (GC 4554),[1]; [8],16 µg/mL
same,MIC Enterococcus faecalis (GC 6189),[1]; [9],8 µg/mL
same,MIC Enterococcus faecium (GC 2243),[1]; Enterococcus faecium (GC 2243),4 µg/mL
same,MIC Enterococcus faecium (GC 4556),[1]; Enterococcus faecium (GC 4556),8 µg/mL
same,MIC Enterococcus faecium (GC 4557),[1]; Enterococcus faecium (GC 4557),1 µg/mL
same,MIC Enterococcus avium (GC 4558),[1],8 µg/mL
same,MIC Enterococcus faecalis (ATCC 29212),[1],8 µg/mL
same,MIC Enterococcus faecalis (GC 2242),[1],8 µg/mL
same,MIC Enterococcus faecalis (GC 2691),[1],8 µg/mL
same,MIC Enterococcus faecalis (GC 3059),[1],8 µg/mL
same,MIC Enterococcus faecalis (GC 4552),[1],8 µg/mL
same,MIC Enterococcus faecalis (GC 4553),[1],8 µg/mL
same,MIC Enterococcus faecalis (GC 4554),[1],16 µg/mL
same,MIC Enterococcus faecalis (GC 6189),[1],8 µg/mL
same,MIC Enterococcus faecium (GC 2243),[1],4 µg/mL
same,MIC Enterococcus faecium (GC 4556),[1],8 µg/mL
same,MIC Enterococcus faecium (GC 4557),[1],1 µg/mL
same,MIC Enterococcus faecalis (GC 2242),[1]; strain GC 2242,8 µg/mL
same,MIC Enterococcus faecalis (GC 2691),[1]; strain GC 2691,8 µg/mL
same,MIC Enterococcus faecalis (GC 3059),[1]; strain GC 3059,8 µg/mL
same,MIC Coagulase Negative Staphylococcus (GC 4547),[2],4 µg/mL
same,MIC Coagulase Negative Staphylococcus (GC 4548),[2],4 µg/mL
same,MIC Coagulase Negative Staphylococcus (GC 4549),[2],4 µg/mL
same,MIC Coagulase Negative Staphylococcus (GC 4551),[2],4 µg/mL
same,MIC Coagulase Negative Staphylococcus (GC 6257),[2],2 µg/mL
same,MIC Staphylococcus aureus-SMITH (GC 4543),[2],4 µg/mL
same,MIC Staphylococcus haemolyticus (GC 4546),[2],4 µg/mL
same,MIC Staphylococcus aureus (ATCC 29213),[2],8 µg/mL
same,MIC Staphylococcus aureus (GC 1131),[2],8 µg/mL
same,MIC Staphylococcus aureus (GC 3051),[2],8 µg/mL
same,MIC Staphylococcus aureus (GC 3053),[2],8 µg/mL
same,MIC Staphylococcus aureus (GC 4541),[2],4 µg/mL
same,MIC Staphylococcus aureus (GC 4542),[2],8 µg/mL
same,MIC Staphylococcus aureus-SMITH (GC 4543),[2]; strain GC 4543,4 µg/mL
same,MIC Staphylococcus aureus (GC 4544),[2],8 µg/mL
same,MIC Staphylococcus aureus (GC 4545),[2],8 µg/mL
same,MIC Staphylococcus haemolyticus (GC 4546),[2]; strain GC 4546,4 µg/mL
same,MIC Coagulase Negative Staphylococcus (GC 4547),[2]; strain GC 4547,4 µg/mL
same,MIC Coagulase Negative Staphylococcus (GC 4548),[2]; strain GC 4548,4 µg/mL
same,MIC Coagulase Negative Staphylococcus (GC 4549),[2]; strain GC 4549,4 µg/mL
same,MIC Coagulase Negative Staphylococcus (GC 4551),[2]; strain GC 4551,4 µg/mL
same,MIC Coagulase Negative Staphylococcus (GC 6257),[2]; strain GC 6257,2 µg/mL
same,MIC Streptococcus agalactiae (GC 4564),[3],1 µg/mL
same,MIC Streptococcus pneumoniae (ATCC 6301),[3],1 µg/mL
same,MIC Streptococcus pneumoniae (GC 1894),[3],0.12 µg/mL
same,MIC Streptococcus pneumoniae (GC 4565),[3],1 µg/mL
same,MIC Streptococcus pyogenes (GC 4563),[3],0.5 µg/mL
same,MIC Streptococcus pneumoniae (ATCC 6301),[3]; strain ATCC 6301,1 µg/mL
same,MIC Streptococcus pneumoniae (GC 1894),[3]; strain GC 1894,0.12 µg/mL
same,MIC Streptococcus pyogenes (GC 4563),[3]; strain GC 4563,0.5 µg/mL
same,MIC Streptococcus agalactiae (GC 4564),[3]; strain GC 4564,1 µg/mL
same,MIC Streptococcus pneumoniae (GC 4565),[3]; strain GC 4565,1 µg/mL
same,MIC Escherichia coli (ATCC 25922),[4],>64 µg/mL
same,MIC Escherichia coli (GC 4559),[4],64 µg/mL
same,MIC Escherichia coli (GC 4560),[4],4 µg/mL
